Read-outs that look alike come from different tables or passages of the source. Bounds are passed on as bounds.

The test system of test [1] is human whole blood TNFα release. The experiment in a line: LPS-stimulation of human whole blood, TNF-α by ELISA. The note with it: IC50 range, LPS 100 ng/ml, 6 hrs, read-out: Inhibitor activity versus human whole blood TNFα release. It counts as cell-based. The method, then:
Whole blood was taken by venous puncture using heparinised vacutainers (Becton Dickinson) and diluted in an equal volume of RPMI 1640 tissue culture media (Sigma). 100 μl was plated in V-bottomed 96 well tissue culture treated plates. 2 hrs after the addition of the inhibitor in 100 μl of RPMI 1640 media, the blood was stimulated with LPS (E. coli strain 005:B5, Sigma) at a final concentration of 100 ng/ml and incubated at 37° C. in 5% CO2 for 6 hrs. TNF-α levels were measured from cell-free supernatants by sandwich ELISA (R&D Systems #QTA00B)

The next test concerns THP-1 TNFα release. The experiment in a line: LPS-stimulation of THP-1 cells, TNF-α by ELISA. Type of test: cell-based. Conditions: IC50 range, LPS 1 μg/ml, 6 hrs, read-out: Inhibitor activity versus THP-1 TNFα release. The procedure:
THP-1 cells were plated in 100 μl at a density of 4×10^4 cells/well in V-bottomed 96 well tissue culture treated plates and incubated at 37° C. in 5% CO2 for 16 hrs. 2 hrs after the addition of the inhibitor in […], of tissue culture media, the cells were stimulated with LPS (E. coli strain 005:B5, Sigma) at a final concentration of 1 μg/ml and incubated at 37° C. in 5% CO2 for 6 hrs. TNF-α levels were measured from cell-free supernatants by sandwich ELISA (R&D Systems #QTA00B).

A further test deals with T1, p38 MAP Kinase a (Homo sapiens, UniProt Q16539).
T1 construct: purchased Upstate (Dundee UK)
Put plainly: p38 MAP Kinase activity, radiometric filter-binding assay (Upstate). It counts as biochemical. The note with it: IC50 range; ATP at or close to Km; read-out: Inhibitor activity versus p38 MAPKa. The method, boiled down: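 Human p38 MAP kinase α (5-10 mU) with 0.33 mg/mL myelin basic protein, 25 mM Tris pH 7.5, 0.002 mM EGTA, 10 mM Mg acetate and [γ-33P]ATP at or near Km; 40 min at RT. Phosphoric acid stop, P30 filter binding and scintillation counting; IC50 from 9-step ⅓-log dilutions from 10 μM top concentration, duplicates.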

T1 sequence (Q16539 whole entry): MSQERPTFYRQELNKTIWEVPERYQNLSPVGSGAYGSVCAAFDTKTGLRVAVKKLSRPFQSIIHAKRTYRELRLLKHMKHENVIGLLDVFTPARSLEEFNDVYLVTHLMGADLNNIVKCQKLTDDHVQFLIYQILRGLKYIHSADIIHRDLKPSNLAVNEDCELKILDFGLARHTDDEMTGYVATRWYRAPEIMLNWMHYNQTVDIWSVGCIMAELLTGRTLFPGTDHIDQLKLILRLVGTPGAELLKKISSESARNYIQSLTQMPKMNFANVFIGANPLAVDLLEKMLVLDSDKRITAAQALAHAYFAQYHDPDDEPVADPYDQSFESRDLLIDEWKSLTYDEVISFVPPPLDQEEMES

In the case of `CC(C)C[C@H](NCc1ccc(-n2c(N)c(C(=O)c3ccc(F)cc3)ccc2=O)cc1)C(=O)OC1CCCC1` [Example 3, Cyclopentyl(S)-2-{4-[6-Amino-5-(4-fluorobenzoyl)-2-oxo-2H-pyridin-1-yl]benzylamino}-4-methylpentanoate], the IC50 was over 1000 nM in test [1]; over 1000 nM in the test with THP-1 TNFα release (Homo sapiens, THP-1); 100 to 1000 nM on p38 MAP Kinase a.

With `CC(C)C[C@H](NCc1ccc(-n2c(N)c(C(=O)c3ccc(F)cc3F)ccc2=O)cc1)C(=O)OC1CCCC1` [Example 9, Cyclopentyl(S)-2-{4-[6-Amino-5-(2,4-difluorobenzoyl)-2-oxo-2H-pyridin-1-yl]benzylamino}-4-methylpentanoate], the IC50 in test [1] was over 1000 nM; in the test with THP-1 TNFα release (Homo sapiens, THP-1) it was 100 to 1000 nM; on p38 MAP Kinase a, under 100 nM.

Regarding `CC(C)C[C@H](NCc1cc(F)c(-n2c(N)c(C(=O)c3ccc(F)cc3F)ccc2=O)c(F)c1)C(=O)OC1CCCC1` [Example 11], the IC50 in test [1] was over 1000 nM; in the test on THP-1 TNFα release (Homo sapiens, THP-1), 100 to 1000 nM; at p38 MAP Kinase a, under 100 nM.

As to `CC(C)C[C@H](NCCCOc1cc(F)c(-n2c(N)c(C(=O)c3ccc(F)cc3)ccc2=O)c(F)c1)C(=O)OC1CCCC1` [Example 15], the IC50 is over 1000 nM in test [1]; under 100 nM in the test with THP-1 TNFα release (Homo sapiens, THP-1); under 100 nM on p38 MAP Kinase a.

`Cc1cc(C(=O)c2ccc(=O)n(-c3c(F)cc(OCCCN[C@@H](CC(C)C)C(=O)OC4CCCC4)cc3F)c2N)ccc1F` [Example 19, Cyclopentyl(S)-2-(3-{4-[6-Amino-5-(4-fluoro-3-methylbenzoyl)-2-oxo-2H-pyridin-1-yl]-3,5-difluorophenoxy}propylamino)-4-methylpentanoate]: the IC50 in test [1] was over 1000 nM; with THP-1 TNFα release (Homo sapiens, THP-1) it was under 100 nM; at p38 MAP Kinase a, under 100 nM.

Turning to `Nc1c(C(=O)c2ccc(F)cc2F)ccc(=O)n1-c1c(F)cc(OCCCN[C@H](C(=O)OC2CCCC2)c2ccccc2)cc1F` [Example 20, Cyclopentyl(S)-(3-{4-[6-Amino-5-(2,4-difluorobenzoyl)-2-oxo-2H-pyridin-1-yl]-3,5-difluorophenoxy}propylamino)phenyl acetate], the IC50 in test [1] was 100 to 1000 nM; with THP-1 TNFα release (Homo sapiens, THP-1) it was under 100 nM; on p38 MAP Kinase a it was under 100 nM.

For `Nc1c(C(=O)c2ccc(F)cc2F)ccc(=O)n1-c1c(F)cc(OCCCN[C@@H](Cc2ccccc2)C(=O)OC2CCCC2)cc1F` [Example 21, Cyclopentyl(S)-2-(3-{4-[6-Amino-5-(2,4-difluorobenzoyl)-2-oxo-2H-pyridin-1-yl]-3,5-difluorophenoxy}-propylamino)-3-phenyl propionate], the IC50 in test [1] is over 1000 nM; with THP-1 TNFα release (Homo sapiens, THP-1) it was under 100 nM; on p38 MAP Kinase a it was under 100 nM.

For `CC(C)C[C@H](NCCCOc1cc(F)c(-n2c(N)c(C(=O)c3ccc(F)cc3F)ccc2=O)c(F)c1)C(=O)OC1CCCC1` [Example 22, Cyclopentyl(S)-2-(3-{4-[6-Amino-5-(2,4-difluorobenzoyl)-2-oxo-2H-pyridin-1-yl]-3,5-difluorophenoxy}propylamino)-4-methyl pentanoate], the IC50 in test [1] is 100 to 1000 nM; in the test with THP-1 TNFα release (Homo sapiens, THP-1) it was under 100 nM; on p38 MAP Kinase a, under 100 nM.

As to `CC(C)C[C@H](NCCCOc1ccc(-n2c(N)c(C(=O)c3ccc(F)cc3)ccc2=O)cc1)C(=O)OC1CCCC1` [Example 25, Cyclopentyl(S)-2-(3-{4-[6-Amino-5-(4-fluorobenzoyl)-2-oxo-2H-pyridin-1-yl]phenoxy}propylamino)-4-methylpentanoate], the IC50 in test [1] is over 1000 nM; in the test on THP-1 TNFα release (Homo sapiens, THP-1), 100 to 1000 nM; on p38 MAP Kinase a, under 100 nM.

`Cc1cc(C(=O)c2ccc(=O)n(-c3ccc(OCCCN[C@@H](CC(C)C)C(=O)OC4CCCC4)cc3)c2N)ccc1F` [Example 27, Cyclopentyl(S)-2-(3-{4-[6-Amino-5-(4-fluoro-3-methylbenzoyl)-2-oxo-2H-pyridin-1-yl]phenoxy}propylamino)-4-methylpentanoate]: the IC50 in test [1] is over 1000 nM; in the test on THP-1 TNFα release (Homo sapiens, THP-1), 100 to 1000 nM; at p38 MAP Kinase a, 100 to 1000 nM.

On to `CC(C)(C)OC(=O)[C@@H](NCCCOc1cc(F)c(-n2c(N)c(C(=O)c3ccc(F)cc3F)ccc2=O)c(F)c1)c1ccccc1` [Example 36, tert-Butyl(S)-(3-{4-[6-Amino-5-(2,4-difluorobenzoyl)-2-oxo-2H-pyridin-1-yl]-3,5-difluorophenoxy}propylamino)phenyl acetate], for which the IC50 in test [1] is over 1000 nM; in the test with THP-1 TNFα release (Homo sapiens, THP-1), under 100 nM; at p38 MAP Kinase a it was under 100 nM.

Regarding `CC(C)C[C@H](NCCCOc1cc(F)c(-n2c(N)c(C(=O)c3ccc(F)cc3F)ccc2=O)c(F)c1)C(=O)OC(C)(C)C` [Example 38, tert-Butyl(S)-2-(3-{4-[6-Amino-5-(2,4-difluorobenzoyl)-2-oxo-2H-pyridin-1-yl]-3,5-difluorophenoxy}propylamino)-4-methyl pentanoate], the IC50 in test [1] is over 1000 nM; in the test on THP-1 TNFα release (Homo sapiens, THP-1) it was under 100 nM; at p38 MAP Kinase a, under 100 nM.

For `Nc1c(C(=O)c2ccc(F)cc2F)ccc(=O)n1-c1c(F)cc(OCCCN[C@@H](C(=O)OC2Cc3ccccc3C2)c2ccccc2)cc1F` [Example 41, 2,3-dihydro-1H-inden-2-yl (2R)-[(3-{4-[6-amino-5-(2,4-difluorobenzoyl)-2-oxopyridin-1(2H)-yl]-3,5-difluorophenoxy}propyl)amino](phenyl)acetate], the IC50 was over 1000 nM in test [1]; under 100 nM in the test with THP-1 TNFα release (Homo sapiens, THP-1); 100 to 1000 nM on p38 MAP Kinase a.

For the compound `Nc1c(C(=O)c2ccc(F)cc2)ccc(=O)n1-c1ccc(CCN[C@H](C(=O)OC2CCCC2)c2ccccc2)cc1` [Example 61, Cyclopentyl(2S)-{[2-(4-{6-amino-5-[(4-fluorophenyl)carbonyl]-2-oxopyridin-1(2H)-yl}phenyl)ethyl]amino}(phenyl)ethanoate], the IC50 was under 100 nM with THP-1 TNFα release (Homo sapiens, THP-1) and 100 to 1000 nM at p38 MAP Kinase a.

As for `CC(C)(C)OC(=O)[C@@H](NCCc1ccc(-n2c(N)c(C(=O)c3ccc(F)cc3)ccc2=O)cc1)c1ccccc1` [Example 62, tert-Butyl (2S)-{[2-(4-{6-amino-5-[(4-fluorophenyl)carbonyl]-2-oxopyridin-1(2H)-yl}phenyl)ethyl]amino}(phenyl)ethanoate], the IC50 in the test with THP-1 TNFα release (Homo sapiens, THP-1) lay within 100 to 1000 nM; on p38 MAP Kinase a, 100 to 1000 nM.

On to `Cc1ccc(C(=O)c2ccc(=O)n(-c3ccc(CCN[C@@H](CC(C)C)C(=O)OC4CCCC4)cc3)c2N)cc1` [Example 63, Cyclopentyl N-[2-(4-{6-amino-5-[(4-methylphenyl)carbonyl]-2-oxopyridin-1(2H)-yl}phenyl)ethyl]-L-leucinate], for which the IC50 with THP-1 TNFα release (Homo sapiens, THP-1) is under 100 nM; on p38 MAP Kinase a, over 1000 nM.

`COc1ccc(C(=O)c2ccc(=O)n(-c3ccc(CCN[C@@H](CC(C)C)C(=O)OC4CCCC4)cc3)c2N)cc1` [Example 64, Cyclopentyl N-[2-(4-{6-amino-5-[(4-methoxyphenyl)carbonyl]-2-oxopyridin-1(2H)-yl}phenyl)ethyl]-L-leucinate]: the IC50 with THP-1 TNFα release (Homo sapiens, THP-1) is 100 to 1000 nM; on p38 MAP Kinase a, over 1000 nM.

Regarding `CC(C)C[C@H](NCCc1ccc(-n2c(N)c(C(=O)c3ccc(Cl)cc3)ccc2=O)cc1)C(=O)OC1CCCC1` [Example 65, Cyclopentyl N-[2-(4-{6-amino-5-[(4-chlorophenyl)carbonyl]-2-oxopyridin-1(2H)-yl}phenyl)ethyl]-L-leucinate], the IC50 in the test with THP-1 TNFα release (Homo sapiens, THP-1) was under 100 nM; at p38 MAP Kinase a, 100 to 1000 nM.

In the case of `CC(C)C[C@H](NCCCOc1ccc(-n2c(N)c(C(=O)c3ccc(F)cc3)ccc2=O)c(F)c1)C(=O)OC1CCCC1` [Example 66, Cyclopentyl N-[3-(4-{6-amino-5-[(4-fluorophenyl)carbonyl]-2-oxopyridin-1(2H)-yl}-3-fluorophenoxy)propyl]-L-leucinate], the IC50 in the test with THP-1 TNFα release (Homo sapiens, THP-1) is 100 to 1000 nM; at p38 MAP Kinase a, 100 to 1000 nM.

Consider `O=C(c1ccc(F)cc1)c1ccc(=O)[nH]c1Nc1c(F)cc(CN[C@@H](Cc2ccccc2)C(=O)OC2CCCC2)cc1F` [Example 71, Cyclopentyl(S)-2-[3,5-Difluoro-4-[3-(4-fluorobenzoyl)-6-oxo-1,6-dihydropyridin-2-ylamino]benzylamino]-3-phenylpropionate], for which the IC50 in the test on THP-1 TNFα release (Homo sapiens, THP-1) is over 1000 nM; at p38 MAP Kinase a, under 100 nM.

For “Cyclopentyl(S)-2-{4-[6-Amino-5-(2,4-fluorobenzoyl)-2-oxo-2H-pyridin-1-yl]-3,5-difluorobenzylamino}-3-phenylpropionate [Example 10]”, the values for the IC50 in the test on THP-1 TNFα release and at p38 MAP Kinase a were 100 to 1000 nM and under 100 nM, respectively.

On to “tert-Butyl(S)-(3-{4-[6-Amino-5-(4-difluoro benzoyl)-2-oxo-2H-pyridin-1-yl]-3,5-difluorophenoxy}propylamino)phenyl acetate [Example 45]”, for which the IC50 in the test on THP-1 TNFα release and at p38 MAP Kinase a was under 100 nM in each case.

Values taken from patent US8044211B2 (Chroma Therapeutics Ltd., priority 2006, dated 2011).
